The source of these data is patent US6696494B2, “α-hydroxyarylbutanamine inhibitors of aspartyl protease” (Enanta Pharmaceuticals, Inc., priority 2001, dated 2004).

Each structure is given as a SMILES string.

For this experiment, the target named is HIV-1 protease (Human immunodeficiency virus type 1 group M subtype B, UniProt P04585). Kind of experiment: Inhibition of microbial expressed viral protease (HIV-1 protease), method of Toth and Marshall. In kind it is biochemical. On the procedure:
Biological Assay for Inhibition of Microbial Expressed Viral Protease
The inhibition constants against HIV-1 protease were measured using the method described by M. V. Toth and G. R. Marshall, Int. J. Peptide protein Res., 1990, 544. The method described M. W. Pennington et al., Peptides 1990, Gimet, E. and D. Andrew, Eds., Escom; Leiden, Netherlands (1990) may also be used. The potency is measured as IC50in μM. The person of skill would accept these tests as predictive of the compounds' utility in vivo to treat HIV infected patients.
Turning to `CC(C)(C)NC(=O)c1ccccc1CC[C@@H](O)[C@H](Cc1ccccc1)NC(=O)c1ccc(Br)c(C(=O)O)c1` [Example 001035], the IC50 (as a rule, the concentration at which inhibition is half-maximal) lay in the range of 100 to 10000 nM. To `CC(C)(C)NC(=O)c1ccccc1CC[C@@H](O)[C@H](Cc1ccccc1)NC(=O)c1cc(C(F)(F)F)ccc1Cl` [Example 001036] belongs over 10000 nM; to `CC(C)(C)NC(=O)c1ccccc1CC[C@@H](O)[C@H](Cc1ccccc1)NC(=O)c1ccccc1C(=O)c1ccccc1N` [Example 001040], 100 to 10000 nM. `CC(C)(C)NC(=O)c1ccccc1CC[C@@H](O)[C@H](Cc1ccccc1)NC(=O)c1ccccc1C(F)(F)F` [Example 001042]: the IC50 was in the range of 100 to 10000 nM. For `CC(C)(C)NC(=O)c1ccccc1CC[C@@H](O)[C@H](Cc1ccccc1)NC(=O)c1ccc(C(=O)c2ccccc2)cc1` [Example 001047] the value was 100 to 10000 nM; for `CC(C)(C)OC(=O)N[C@@H](Cc1ccccc1)[C@H](O)CCc1ccccc1C(=O)N[C@H](CO)c1ccccc1` [Example 001054], 100 to 10000 nM. To `Cc1nocc1C(=O)N[C@@H](Cc1ccccc1)[C@H](O)CCc1ccccc1C(=O)NC(C)(C)C` [Example 001154] belongs 100 to 10000 nM. On to `CC(C)(C)NC(=O)c1ccccc1CC[C@@H](O)[C@H](Cc1ccccc1)NC(=O)COc1cc(F)cc(F)c1` [Example 001182], for which the IC50 is over 10000 nM. Take `Cc1cccc(OCC(=O)N[C@@H](Cc2ccccc2)[C@H](O)CCc2ccccc2C(=O)NC(C)(C)C)c1` [Example 001185]: the half-inhibitory concentration (IC50) was in the range of 100 to 10000 nM. With `Cc1ccc(OCC(=O)N[C@@H](Cc2ccccc2)[C@H](O)CCc2ccccc2C(=O)NC(C)(C)C)cc1` [Example 001186], the IC50 lay within 100 to 10000 nM. Molecule `CC(C)(C)NC(=O)c1ccccc1CC[C@@H](O)[C@H](Cc1ccccc1)NC(=O)CSc1ccccc1` [Example 001190] showed an IC50 of 100 to 10000 nM.

In turn, `CC(C)(C)NC(=O)c1ccccc1CC[C@@H](O)[C@H](Cc1ccccc1)NC(=O)CNc1ccccc1` [Example 001192] showed an IC50 of 100 to 10000 nM. To `Cc1ccc(C)c(OCC(=O)N[C@@H](Cc2ccccc2)[C@H](O)CCc2ccccc2C(=O)NC(C)(C)C)c1C` [Example 001201] belongs under 100 nM; to `CC(C)(C)NC(=O)c1ccccc1CC[C@@H](O)[C@H](Cc1ccccc1)NC(=O)COc1c(Cl)cccc1Cl` [Example 001203], 100 to 10000 nM; to `CC(C)(C)NC(=O)c1ccccc1CC[C@@H](O)[C@H](Cc1ccccc1)NC(=O)COc1ccccc1C(F)(F)F` [Example 001204], 100 to 10000 nM. Molecule `C=CCc1cccc(C)c1OCC(=O)N[C@@H](Cc1ccccc1)[C@H](O)CCc1ccccc1C(=O)NC(C)(C)C` [Example 001206] yielded an IC50 of 100 to 10000 nM. To `COc1cccc(OC)c1OCC(=O)N[C@@H](Cc1ccccc1)[C@H](O)CCc1ccccc1C(=O)NC(C)(C)C` [Example 001210] belongs 100 to 10000 nM; to `Cc1cc([N+](=O)[O-])cc(C)c1OCC(=O)N[C@@H](Cc1ccccc1)[C@H](O)CCc1ccccc1C(=O)NC(C)(C)C` [Example 001211], 100 to 10000 nM; to `COc1cccc(C)c1OCC(=O)N[C@@H](Cc1ccccc1)[C@H](O)CCc1ccccc1C(=O)NC(C)(C)C` [Example 001213], under 100 nM. `CC(C)(C)NC(=O)c1ccccc1CC[C@@H](O)[C@H](Cc1ccccc1)NC(=O)COc1c(F)cccc1F` [Example 001214] displayed an IC50 of under 100 nM. In turn, `Cc1cccc(Cl)c1OCC(=O)N[C@@H](Cc1ccccc1)[C@H](O)CCc1ccccc1C(=O)NC(C)(C)C` [Example 001215] displayed an IC50 of under 100 nM.

The molecule `Cc1cc(Br)cc(Cl)c1OCC(=O)N[C@@H](Cc1ccccc1)[C@H](O)CCc1ccccc1C(=O)NC(C)(C)C` [Example 001216] showed a concentration for half-maximal inhibition (IC50) of 100 to 10000 nM. On to `COc1cccc(F)c1OCC(=O)N[C@@H](Cc1ccccc1)[C@H](O)CCc1ccccc1C(=O)NC(C)(C)C` [Example 001217], for which the half-maximal inhibitory concentration (IC50) lay within 100 to 10000 nM. For `Cc1cc(Br)cc(C)c1OCC(=O)N[C@@H](Cc1ccccc1)[C@H](O)CCc1ccccc1C(=O)NC(C)(C)C` [Example 001218] the value was under 100 nM. In turn, `CC(C)CC(O)C(=O)NC(Cc1ccccc1)C(O)CCc1ccccc1C(=O)NC(C)(C)C` (centres unmarked) [Example 001219] had an IC50 of 100 to 10000 nM. Consider `CC(C)(C)NC(=O)c1ccccc1CC[C@@H](O)[C@H](Cc1ccccc1)NC(=O)COc1c(Cl)cc(Cl)cc1Cl` [Example 001224], for which the IC50 is under 100 nM. The molecule `Cc1cc(Br)c(OCC(=O)N[C@@H](Cc2ccccc2)[C@H](O)CCc2ccccc2C(=O)NC(C)(C)C)c(Br)c1` [Example 001225] had a half-maximal inhibitory concentration (IC50) of 100 to 10000 nM. For `CC(C)(C)NC(=O)c1ccccc1CC[C@@H](O)[C@H](Cc1ccccc1)NC(=O)COc1c(Br)cc(F)cc1Br` [Example 001226] the value was 100 to 10000 nM; for `CC(C)(C)NC(=O)c1ccccc1CC[C@@H](O)[C@H](Cc1ccccc1)NC(=O)COc1ccc(F)c(F)c1F` [Example 001227], 100 to 10000 nM.

`CC(C)(C)NC(=O)c1ccccc1CC[C@@H](O)[C@H](Cc1ccccc1)NC(=O)COC1CCCCC1` [Example 001228] returned a half-maximal inhibitory concentration (IC50) of 100 to 10000 nM. `CC1CCCCC1OCC(=O)NC(Cc1ccccc1)C(O)CCc1ccccc1C(=O)NC(C)(C)C` (centres unmarked) [Example 001229] displayed an IC50 of 100 to 10000 nM. To `CC1CCCC(C)C1OCC(=O)NC(Cc1ccccc1)C(O)CCc1ccccc1C(=O)NC(C)(C)C` (centres unmarked) [Example 001230] belongs 100 to 10000 nM. For `CCC(CC)OCC(=O)N[C@@H](Cc1ccccc1)[C@H](O)CCc1ccccc1C(=O)NC(C)(C)C` [Example 001231] the value was 100 to 10000 nM; for `Cc1ccc(CC[C@@H](O)[C@H](Cc2ccccc2)NC(=O)COc2c(C)cccc2C)c(C(=O)NC(C)(C)C)c1` [Example 001237], under 100 nM; for `Cc1cccc(C)c1OCC(=O)N[C@@H](Cc1ccccc1)[C@H](O)CCc1cccc(F)c1C(=O)NC(C)(C)C` [Example 001239], under 100 nM. For `Cc1c(O)cccc1OCC(=O)N[C@@H](Cc1ccccc1)[C@H](O)CCc1ccccc1C(=O)NC(C)(C)C` [Example 001246] the value was under 100 nM.

The molecule `Cc1cccc(C)c1OCC(=O)N[C@@H](Cc1ccccc1)[C@H](O)CCc1cccc(C)c1C(=O)NC(C)(C)C` [Example 001249] had an IC50 of under 100 nM. For `Cc1cc(CO)cc(C)c1OCC(=O)N[C@@H](Cc1ccccc1)[C@H](O)CCc1ccccc1C(=O)NC(C)(C)C` [Example 001267] the value was under 100 nM; for `CC(C)(C)NC(=O)c1ccccc1CC[C@@H](O)[C@H](Cc1ccccc1)NC(=O)COc1cccnc1Cl` [Example 001268], 100 to 10000 nM. For `Cc1cc(C(=O)N[C@@H](Cc2ccccc2)[C@H](O)CCc2ccccc2C(=O)NC(C)(C)C)cc(C)c1OCC(=O)O` [Example 001278] the value was 100 to 10000 nM; for `Cc1cc(C(=O)O)ccc1OCC(=O)N[C@@H](Cc1ccccc1)[C@H](O)CCc1ccccc1C(=O)NC(C)(C)C` [Example 001279], 100 to 10000 nM.
